Results as given in patent US9670482B2, “Multispecific peptides” (BICYCLE THERAPEUTICS LIMITED, priority 2009, dated 2017).
Residues, ends and D or L forms follow the SMILES beside them.

Assays:
[1] = target: T1, Kallikrein (Homo sapiens, UniProt P03952); assay: Kallikrein assays (Z-Phe-Arg-amc substrate); type: biochemical; settings: IC50 for inhibition of kallikrein activity, 0.1 nM kallikrein, 100 μM substrate, 30° C.
T1 construct: purchased Sigma Aldrich
Description: Enzymes were purchased from Sigma Aldrich and substrates from Bachem A G. The assay buffer is composed of 10 mM Tris pH 7.4, 150 mM NaCl, 10 mM MgCl2, 1 mM CaCl2, 0.1% BSA, 0.01% Triton X100 and 5% DMSO. Enzymes are incubated with inhibitors for 30 minutes at RT prior to addition of substrate. All experiments were recorded at 30° C. for 90 minutes.
Assays were performed on a BMG Pherastar plate reader at wavelengths of exc/em 350/450 nm. Kallikrein was bought as a solution of 1080 μg/mL and diluted to a working concentration of 0.3 nM in assay buffer. Substrate Z-Phe-Arg-amc was solubilised at the stock concentration of 10 mM in DMSO and diluted to a working concentration of 300 μM with assay buffer. Inhibitors were solubilised in assay buffer to a stock concentration of 60 μM. 50 μL of each reagent is introduced in wells for a final volume of 150 μL per well. Final concentration of kallikrein in assay is 0.1 nM and substrate is 100 μM.
Final concentrations of inhibitors were: 0.5 nM, 1 nM, 2 nM, 5 nM, 8 nM, 10 nM, 20 nM, 50 nM, 80 nM, 100 nM, 200 nM, 500 nM, 800 nM, 1 μM, 2 μM, 5 μM, 8 μM, 10 μM and 20 μM. The initial rate of the reaction is obtained by plotting fluorescence=f (time) data and by fitting a linear trendline for each concentration of inhibitor. The inhibition curves are obtained by plotting initial rate=f ([I]) and IC50 values can be evaluated.

[2] = target: T2, Cathepsin G (Homo sapiens, UniProt P08311); assay: Peptide conjugate digestion with Cathepsin G; type: in vitro ADME; parameters: key to the marks not given beside the values; settings: 37° C. for 1 hr
T2 sequence (P08311 21-244): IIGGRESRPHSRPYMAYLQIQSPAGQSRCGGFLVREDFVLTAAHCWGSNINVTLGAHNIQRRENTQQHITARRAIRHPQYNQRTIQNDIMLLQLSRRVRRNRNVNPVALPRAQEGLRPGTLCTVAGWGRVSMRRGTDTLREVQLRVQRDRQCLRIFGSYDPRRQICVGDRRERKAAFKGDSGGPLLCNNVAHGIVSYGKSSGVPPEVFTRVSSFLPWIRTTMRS
Description: (§1) Linear peptides (PK15 and CG4L1-PK15L1) were first treated with iodoacetamide prior to digestion studies. The peptides (ca 3-4 mg) were purified by HPLC (semi-prep Proteo column as described in general methods), and the HPLC fraction (ca 3 ml) was neutralised with an equal volume of 50 mM ammonium bicarbonate. […] The reaction mixture was concentrated (rotary evaporator) and re-purified by HPLC as above.
(§2) Peptides (linear and conjugates) were dissolved in water at a concentration of 1 mg/ml, giving an effective concentration of −0.5 mM stock solutions. 2 μl of peptide conjugates (˜30 μM in reactions depending on actual molecular weight) where dissolved in reaction buffer (see below) in a total reaction volume of 30 μl, followed by the protease, and samples were incubated at 37° C. for 1 hr. 10 μl aliquots were quenched into 20 μl of 10% dichloroacetic acid in MeCN/H2O (1:1) and stored at −20° C. for 30 minutes, centrifuged at 4° C. (13000 rpm) for 5 minutes and then spotted onto MALDI-TOF mass spectrometer plate for analysis.
(§3) All reactions at 37° C. Cathepsin G and kalikrein reactions were carried out in 10 mM Tris pH 7.4, 150 mM NaCl, 10 mM MgCl2, 1 mM CaCl2, 0.1% BSA, 0.01% Triton X100, 5% DMSO. Chymotrypsin reactions were carried out in 100 mM Tris pH 7.4, 10 mM CaCl2. Pronase and proteinase K reactions were carried out in 100 mM Tris pH 7.4, 0.5% SDS. Subtilisin reactions were carried out in 50 mM KH2PO4 pH 7.5. Trypsin reactions were carried out in 67 mM sodium phosphate pH 7.6. Reaction conditions with serum involve dissolving the peptide in 1×PBS (total volume 24 μl) and 6 μl of human serum added to the reaction.

[3] = tested on: Chymotrypsin; assay: Peptide conjugate digestion with Chymotrypsin; type: in vitro ADME; settings: 37° C. for 1 hr
Description: as §1, §2, §3

[4] = target: Kalikrein (Homo sapiens, UniProt P03952); assay: Peptide conjugate digestion with Kalikrein; type: in vitro ADME; parameters: digestion with Kalikrein: key to the marks not given beside the values; settings: 37° C. for 1 hr
Sequence of Kalikrein (P03952 20-638): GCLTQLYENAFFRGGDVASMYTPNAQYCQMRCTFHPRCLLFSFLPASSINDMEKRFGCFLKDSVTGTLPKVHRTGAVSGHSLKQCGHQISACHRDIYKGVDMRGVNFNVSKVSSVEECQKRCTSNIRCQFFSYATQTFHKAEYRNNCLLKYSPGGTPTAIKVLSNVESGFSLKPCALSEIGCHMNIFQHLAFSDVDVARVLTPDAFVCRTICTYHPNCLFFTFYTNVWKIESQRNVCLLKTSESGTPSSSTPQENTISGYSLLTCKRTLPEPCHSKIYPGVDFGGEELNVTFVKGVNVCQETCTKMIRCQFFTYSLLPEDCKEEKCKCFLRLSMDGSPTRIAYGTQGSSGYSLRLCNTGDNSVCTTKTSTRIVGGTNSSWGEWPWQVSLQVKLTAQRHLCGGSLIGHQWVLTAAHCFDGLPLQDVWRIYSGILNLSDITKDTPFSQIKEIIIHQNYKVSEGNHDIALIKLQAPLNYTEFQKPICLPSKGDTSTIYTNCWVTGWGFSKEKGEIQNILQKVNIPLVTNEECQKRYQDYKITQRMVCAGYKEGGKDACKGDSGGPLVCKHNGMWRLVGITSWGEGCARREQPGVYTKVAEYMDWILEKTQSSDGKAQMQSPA
Description: as §1, §2, §3

[5] = tested on: Pronase; assay: Peptide conjugate digestion with Pronase; type: in vitro ADME; parameters: key to the marks not given beside the values; settings: 37° C. for 1 hr
Description: as §1, §2, §3

[6] = tested on: Subtilisin; assay: Peptide conjugate digestion with Subtilisin; type: in vitro ADME; settings: 37° C. for 1 hr
Description: as §1, §2, §3

[7] = tested on: Trypsin; assay: Peptide conjugate digestion with Trypsin; type: in vitro ADME; settings: 37° C. for 1 hr
Description: as §1, §2, §3

[8] = target: bovine serum albumin (BSA) (Bos taurus, UniProt P02769); assay: Fluorescence anisotropy titration with BSA; settings: for binding to BSA (change in anisotropy): titration with BSA, FIG. 4
Sequence of bovine serum albumin (BSA) (P02769 25-607): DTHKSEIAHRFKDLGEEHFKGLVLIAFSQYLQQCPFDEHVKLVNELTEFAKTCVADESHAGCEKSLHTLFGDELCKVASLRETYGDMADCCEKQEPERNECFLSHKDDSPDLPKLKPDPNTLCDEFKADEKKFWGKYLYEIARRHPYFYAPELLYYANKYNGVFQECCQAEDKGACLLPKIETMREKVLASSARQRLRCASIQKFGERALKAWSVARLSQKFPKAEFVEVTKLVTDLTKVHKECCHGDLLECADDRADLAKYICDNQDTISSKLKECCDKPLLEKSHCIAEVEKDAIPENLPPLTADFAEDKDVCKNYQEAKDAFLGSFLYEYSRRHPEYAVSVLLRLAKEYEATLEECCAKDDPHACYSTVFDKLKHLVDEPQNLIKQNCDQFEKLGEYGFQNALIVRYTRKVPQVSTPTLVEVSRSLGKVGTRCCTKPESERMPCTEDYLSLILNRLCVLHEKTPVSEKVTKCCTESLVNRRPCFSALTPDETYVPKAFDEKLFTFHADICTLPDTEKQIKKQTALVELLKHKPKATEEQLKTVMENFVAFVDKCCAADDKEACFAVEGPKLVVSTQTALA
From the text: For determining the affinity constant (Kd) of a fluorophore to target protein, we chose fluorescence anisotropy titrations.
Excitation was specific for coumarin (328 nm), and emission at 393 nm.
To determine whether a neighbouring group (here, Gly) on Fmoc affects binding to BSA, a similar experiment was run with Fmoc-Gly-OH (Nova Biochem). The intrinsic fluorescing properties of Fmoc were used for the anisotropy experiments.
To determine whether a neighbouring hydrophobic bulky group has an enhancing or adverse effect on BSA binding, Fmoc-Phe-OH was tested as above.
The solid phase resin employed was PAL-PEG-PS from Applied Biosystems. […] All peptides were capped with an N-terminal Fmoc, and a C-terminal amide (NH2). After cleavage, peptides were lyophilised, and solubilised in 5 mL of DMF. 100 μl of this was loaded onto an analytical C18 column using a Waters HPLC, using methanol and water (both in the presence of 0.1% TFA) as solvents. […] The peptide concentration in the cuvette was 200 nM.
Excitation was at 299 nm (to minimise Trp absorption), and emission at 320 nm. Slit widths were at 5 and 12 nm, respectively.
Peptide concentrations were estimated by the absorbance at 299 nm, using the extinction coefficient of 4700/M/cm. Excitation was at 299 nm, and emission was set to 320 nm, at slit widths of 5 and 12 nm, respectively.

T1 sequence (P03952 20-638): as the sequence (P03952 20-638) above

CC[C@H](C)[C@@H]1NC(=O)[C@@H](NC(=O)[C@H](CC(C)C)NC(=O)[C@H](C)N)CSCc2cc3cc(c2)CSC[C@@H](C(=O)N2CCC[C@H]2C(=O)N[C@@H](C)C(=O)N[C@@H](CC(=O)O)C(=O)N[C@@H](CCC(=O)O)C(=O)O)NC(=O)[C@H](CC(N)=O)NC(=O)[C@H](CCCNC(=N)N)NC(=O)[C@H](Cc2ccccc2)NC(=O)[C@H](CCCNC(=N)N)NC(=O)[C@H](CC(=O)O)NC(=O)[C@H](CO)NC(=O)[C@H](CSC3)NC(=O)[C@H](Cc2ccccc2)NC(=O)CNC(=O)[C@H](CC(C)C)NC(=O)[C@H](CC(=O)O)NC(=O)[C@H](Cc2ccccc2)NC1=O [X-CG4L1-PK15L1-Y bicyclic] (HELM PEPTIDE1{A.L.C.I.F.D.L.G.F.C.S.D.R.F.R.N.C.P.A.D.E}|CHEM1{[c1c(C[*:1])cc(C[*:3])cc1C[*:2]]}$PEPTIDE1,CHEM1,3:R3-1:R1|PEPTIDE1,CHEM1,10:R3-1:R2|PEPTIDE1,CHEM1,17:R3-1:R3$$$V2.0)
IC50 [1]: 15 µM
digestion with Cathepsin G ([2]; 0.01 μg enzyme per reaction): +++
digestion with Cathepsin G ([2]; 0.1 μg enzyme per reaction): +++
digestion with Chymotrypsin ([3]; 0.01 μg enzyme per reaction): +++
digestion with Chymotrypsin ([3]; 10 μg enzyme per reaction): −
digestion with Kalikrein ([4]; 0.01 μg enzyme per reaction): +++
digestion with Kalikrein ([4]; 0.1 μg enzyme per reaction): +++
digestion with Pronase ([5]; 0.01 μg enzyme per reaction): +++
digestion with Pronase ([5]; 0.1 μg enzyme per reaction): +++
digestion with Pronase ([5]; 1 μg enzyme per reaction): +++
digestion with Subtilisin ([6]; 0.009 μg enzyme per reaction): +++
digestion with Subtilisin ([6]; 9 μg enzyme per reaction): −
digestion with Trypsin ([7]; 0.01 μg enzyme per reaction): +++
digestion with Trypsin ([7]; 10 μg enzyme per reaction): −

CC[C@H](C)[C@@H]1NC(=O)[C@@H]2CSCc3cc(cc(c3)CSC[C@@H](C(=O)NCC(=O)O)NC(=O)[C@H](Cc3ccccc3)NC(=O)CNC(=O)[C@H](CC(C)C)NC(=O)[C@H](CC(=O)O)NC(=O)[C@H](Cc3ccccc3)NC1=O)CSC[C@H](NC(=O)[C@H](C)N)C(=O)N[C@@H](CO)C(=O)N[C@@H](CC(=O)O)C(=O)N[C@@H](CCCNC(=N)N)C(=O)N[C@@H](Cc1ccccc1)C(=O)N[C@@H](CCCNC(=N)N)C(=O)N[C@@H](CC(N)=O)C(=O)N2 [PK15L1-CG4L1 bicyclic] (HELM PEPTIDE1{A.C.S.D.R.F.R.N.C.I.F.D.L.G.F.C.G}|CHEM1{[c1c(C[*:1])cc(C[*:3])cc1C[*:2]]}$PEPTIDE1,CHEM1,2:R3-1:R1|PEPTIDE1,CHEM1,9:R3-1:R2|PEPTIDE1,CHEM1,16:R3-1:R3$$$V2.0)
IC50 [1]: 0.2 µM

O=C(O)CNC(=O)OCC1c2ccccc2-c2ccccc21 [Fmoc-Gly-OH]
Kd [8]: 0.42 µM

CC[C@H](C)[C@@H]1NC(=O)[C@@H]2CSCc3cc4cc(c3)CSC[C@H](NC(=O)[C@H](CC(N)=O)NC(=O)[C@H](CCCNC(=N)N)NC(=O)[C@H](Cc3ccccc3)NC(=O)[C@H](CCCNC(=N)N)NC(=O)[C@H](CC(=O)O)NC(=O)[C@H](CO)NC(=O)[C@H](CSC4)NC(=O)[C@H](Cc3ccccc3)NC(=O)CNC(=O)[C@H](CC(C)C)NC(=O)[C@H](CC(=O)O)NC(=O)[C@H](Cc3ccccc3)NC1=O)C(=O)N1CCC[C@H]1C(=O)N[C@@H](C)C(=O)N[C@@H](CC(=O)O)C(=O)N[C@@H](CCC(=O)O)C(=O)N[C@@H](C)C(=O)N[C@@H](CC(C)C)C(=O)N2 [CG4L1-PK15L1-PK15L2 tricyclic] (HELM PEPTIDE1{A.D.E.A.L.C.I.F.D.L.G.F.C.S.D.R.F.R.N.C.P}|CHEM1{[c1c(C[*:1])cc(C[*:3])cc1C[*:2]]}$PEPTIDE1,CHEM1,6:R3-1:R1|PEPTIDE1,CHEM1,13:R3-1:R2|PEPTIDE1,CHEM1,20:R3-1:R3|PEPTIDE1,PEPTIDE1,1:R1-21:R2$$$V2.0)
IC50 [1]: 15 µM

COc1ccc2c(CC(=O)NCCCCC(N)C(=O)O)cc(=O)oc2c1 (centres unmarked) [Lys-Mca]
binding to BSA (change in anisotropy) [8]: no binding

COc1ccc2c(CC(=O)NCCCC[C@H](NC(=O)OCC3c4ccccc4-c4ccccc43)C(=O)O)cc(=O)oc2c1 [Fmoc-Lys-Mca]
Kd [8]: 0.34 µM

COc1ccc2c(CC(=O)O)cc(=O)oc2c1 [Mca-OH]
binding to BSA (change in anisotropy) [8]: did not bind BSA

NC(=O)[C@H](CC(=O)O)NC(=O)CNC(=O)[C@H](CO)NC(=O)CNC(=O)[C@H](Cc1c[nH]c2ccccc12)NC(=O)OCC1c2ccccc2-c2ccccc21 [Fmoc-WGSGD-NH2] (HELM PEPTIDE1{[O=C(OCC1c2ccccc2-c2ccccc21)[*:2]].W.G.S.G.D.[am]}$$$$V2.0)
Kd [8]: ~0.06 µM
fold tighter binding to BSA than Fmoc-FGSGD-NH2 [8]: 3 fold

NC(=O)[C@H](CC(=O)O)NC(=O)CNC(=O)[C@H](CO)NC(=O)CNC(=O)[C@H](Cc1ccccc1)NC(=O)OCC1c2ccccc2-c2ccccc21 [Fmoc-FGSGD-NH2] (HELM PEPTIDE1{[O=C(OCC1c2ccccc2-c2ccccc21)[*:2]].F.G.S.G.D.[am]}$$$$V2.0)
fold tighter binding to BSA than the glycine variant Fmoc-GGSGD-NH2 [8]: 8 fold
